Source: patent US9163011B2, “Oxazine derivatives and their use in the treatment of disease” (NOVARTIS AG, priority 2011, dated 2015)

Experiments:
Human BACE-1 = Human BACE-1 (Homo sapiens (Human), UniProt P56817); test: Test 1: Inhibition of Human BACE-1; type: biochemical; conditions: recombinant BACE-1, pH 4.5, 1 hour preincubation
Method: Test 1: Inhibition of Human BACE-1
(§1) Recombinant BACE-1 (extracellular domain, expressed in baculovirus and purified using standard methods) at 0.1 to 1 nM concentrations is incubated with the test compound at various concentrations for 1 hour at room temperature in 100 mM acetate buffer, pH 4.5, containing 0.1% CHAPS. Activity was measured using a final concentration of 3 μM of the fluorescence-quenched substrate Q-C(HSO3)-Ile-Asp-Leu-Ala-Val-Leu-Asp-HN—CH2—CH2-Mca, where Q=2-nitro-5-amino benzoic acid and Mca=7-methoxy-4-coumarinyl acetic acid. Catalytic turnover was monitored in a Spectramax Gemini fluorescence plate reader (Molecular Devices) in black 96-well microplates using excitation/emission wavelength of 325 nm and 400 nm, respectively. Fluorescence increase was followed for 15 min, in 1 minute's intervals. The fluorescence/time slopes were calculated from duplicate wells and from wells without inhibitor and the IC50 values were calculated using a logistic 4-parameter model.

Human BACE-2 = Human BACE-2 (Homo sapiens (Human), UniProt Q9Y5Z0); test: Test 2: Inhibition of Human BACE-2; type: biochemical; conditions: recombinant BACE-2, pH 4.5, 1 hour preincubation
Sequence of Human BACE-2 (Q9Y5Z0 63-473): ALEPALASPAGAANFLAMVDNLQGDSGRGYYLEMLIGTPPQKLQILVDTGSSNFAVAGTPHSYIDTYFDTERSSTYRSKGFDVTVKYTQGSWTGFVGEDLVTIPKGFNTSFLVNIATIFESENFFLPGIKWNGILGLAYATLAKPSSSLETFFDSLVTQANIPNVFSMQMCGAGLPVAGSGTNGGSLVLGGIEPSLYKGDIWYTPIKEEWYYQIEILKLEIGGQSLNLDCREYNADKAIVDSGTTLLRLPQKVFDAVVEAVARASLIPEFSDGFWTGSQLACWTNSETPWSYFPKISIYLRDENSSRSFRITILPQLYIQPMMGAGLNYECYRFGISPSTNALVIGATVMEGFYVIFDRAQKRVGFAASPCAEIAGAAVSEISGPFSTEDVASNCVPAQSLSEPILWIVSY
Method: Test 2: Inhibition of Human BACE-2
as §1, with “BACE-2” for “BACE-1”

[1] = Test 4: Inhibition of Cellular Release of Amyloid Peptide 1-40; type: cell-based, Chinese hamster; conditions: Cricetulus griseus; CHO cells with human APP, 24 hours with compound; read-out: Test 4 Amyloid-β1-40 release IC50
Method: The cells are plated at a density of 8000 cells/well into 96-well microtiter plates and cultivated for 24 hours in DMEM cell culture medium containing 10% FCS. The test compound is added to the cells at various concentrations, and the cells are cultivated for 24 hours in the presence of the test compound. […] The potency of the compound is calculated from the percentage of inhibition of amyloid peptide release as a function of the test compound concentration.

[2] = tested on: Soluble Abeta40 levels in the rat brain and CSF; test: Test 5: In Vivo Inhibitory Activity (Abeta lowering in rat brain and CSF); conditions: male Sprague-Dawley rats, oral gavage, 10 micromoles per kilogram, 4 hours prior to sacrifice; n.s.=not statistically significant
Method: Test 5: In Vivo Inhibitory Activity of Example Compounds
Male Sprague-Dawley rats, 220-280 g weight, (Charles River, France) were dosed by oral gavage with vehicle alone (0.1% Tween80, 0.5% methylcellulose in water) or with compound suspended in vehicle at a dose of 10 micromoles compound per kilogram body weight, 4 hours prior to sacrifice. The 4 hour timepoint was selected in order to compare the activity of compounds that have sufficient pharmacokinetic and biodistribution properties to reduce total brain Abeta within approximately three half-lives of the rat brain Abeta40 peptide.
Immediately prior to sacrifice, anaesthetized rat (spontaneous inhalation, 2-5% Isoflurane and air) were fixed in a stereotaxic apparatus on a raised platform, with anesthesia maintained though a nose cone. The angle of the head was tilted downward, perpendicular to the body, and a hypodermic needle lowered through the skin behind the occipital ridge, into the Cisterna magna. Cerebrospinal fluid (CSF) was withdrawn (˜50-100 μL), dispensed into tubes (protein Lo-bind Eppendorf tubes for Abeta40 analysis, normal Eppendorph tubes for compound analysis), frozen on dry ice and stored at −80° C. until analysis. Rats were then immediately decapitated under anesthesia, trunk blood collected for analysis of compound levels and the brain retrieved. One half-forebrain was dissected by removing the cerebellum and olfactory bulbs, frozen in three pieces on a metal plate pre-cooled on frozen CO2 and stored in tubes at −80° C. until analysis for Abeta40. For the other half-brain, olfactory bulbs were discarded and a sagittal slice taken from the medial aspect, weighing ˜200-400 mg, placed in glass HPLC tubes and frozen on dry ice until analysis for compound levels.
Soluble Abeta40 levels in the rat brain and CSF were quantified using a Meso Scale Discovery (MSD) 96-well MULTI-ARRAY human/rodent (4G8) Abeta40 Ultrasensitive Assay (#K110FTE-3, Meso Scale Discovery, Gaithersburg, USA). Forebrain sample homogenates were prepared by sonication in 9 volumes (w/v) of ice cold TBA. Fifty μL of 2% TX-100 in TBS-complete was added to 50 μL aliquots of the homogenate to reach a final concentration of 1% TX-100 in a 1:20 dilution. Samples were incubated on ice for 15 min interrupted with 3 short vortexing steps, then centrifuged (100 000×g, 4° C., 15 min), and 50 μL of supernatant collected. This was further diluted 1:5 with 3% Blocker A solution from the MSD kit to a final dilution of 1:100 and applied to the MSD plate. CSF samples containing blood were excluded. All other CSF samples were diluted with 1% Blocker A solution (from manufacturers kit) to reach a 1:20 CSF dilution. Calibration curves were prepared in 1% Blocker A solution spiked with synthetic Abeta1-40 peptide. Samples and calibration standards were applied in duplicate at a volume of 25 μL per well. Abeta40 concentrations of samples were estimated from the standard curve using SOFTmax PRO4.0.

Sequence of Human BACE-1 (P56817 46-457): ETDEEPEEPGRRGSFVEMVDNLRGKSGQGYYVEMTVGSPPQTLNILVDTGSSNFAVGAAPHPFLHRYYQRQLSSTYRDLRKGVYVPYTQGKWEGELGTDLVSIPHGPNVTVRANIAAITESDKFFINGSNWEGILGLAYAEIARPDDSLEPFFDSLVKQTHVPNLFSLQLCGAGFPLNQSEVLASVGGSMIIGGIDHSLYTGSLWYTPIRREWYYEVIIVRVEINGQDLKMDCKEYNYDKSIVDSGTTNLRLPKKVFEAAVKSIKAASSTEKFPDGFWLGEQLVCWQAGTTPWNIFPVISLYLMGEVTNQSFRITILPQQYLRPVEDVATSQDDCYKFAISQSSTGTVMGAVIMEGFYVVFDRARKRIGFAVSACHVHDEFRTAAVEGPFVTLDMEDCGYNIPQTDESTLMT

IC50 (Human BACE-1) [nM]	IC50 (Human BACE-2) [nM]	IC50 [1] [nM]	SMILES	Abeta lowering in rat CSF [2] [%]	Abeta lowering in rat forebrain [2] [%]
12	71	8	C[C@]1(c2nc(NC(=O)c3ncc(C#N)cc3Cl)ccc2F)N=C(N)OCC1(F)F [Example 2, 3-Chloro-5-cyano-pyridine-2-carboxylic acid [6-((R)-2-amino-5,5-difluoro-4-methyl-5,6-dihydro-4H-[1,3]oxazin-4-yl)-5-fluoro-pyridin-2-yl]-amide]	−70.7	−67.1
19	7	13	C[C@]1(c2nc(NC(=O)c3nn(C(F)F)cc3Cl)ccc2F)N=C(N)OCC1(F)F [Example 30, 4-Chloro-1-difluoromethyl-1H-pyrazole-3-carboxylic acid [6-((R)-2-amino-5,5-difluoro-4-methyl-5,6-dihydro-4H-[1,3]oxazin-4-yl)-5-fluoro-pyridin-2-yl]-amide]	−55.2	−46.6
